The results in this text go back to US20220289679A1, “HETEROCYCLIC COMPOUND” (Takeda Pharmaceutical Company Limited, priority 2019, published 2022).

The target of this assay is T1, human GCS (glucosylceramide synthase) (Homo sapiens, UniProt Q16739).
T1 construct: made in house; host or cells: Expi293F cells (transient expression; microsome fraction)
T1 sequence (Q16739 1-394): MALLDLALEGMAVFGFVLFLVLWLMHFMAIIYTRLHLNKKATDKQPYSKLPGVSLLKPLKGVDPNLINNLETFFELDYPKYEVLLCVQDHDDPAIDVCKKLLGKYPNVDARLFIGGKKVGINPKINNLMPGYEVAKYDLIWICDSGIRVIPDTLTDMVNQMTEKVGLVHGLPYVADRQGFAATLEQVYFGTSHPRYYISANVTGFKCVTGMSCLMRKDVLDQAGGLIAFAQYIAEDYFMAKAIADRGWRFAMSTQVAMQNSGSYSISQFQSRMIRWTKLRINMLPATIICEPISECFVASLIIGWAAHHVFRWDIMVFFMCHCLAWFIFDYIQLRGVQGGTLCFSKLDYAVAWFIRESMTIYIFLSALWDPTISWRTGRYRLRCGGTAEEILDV
The assay is described as follows: Glucosylceramide Synthase (GCS) Assay. Format: biochemical. To be noted: test compound 10 μM; microsome fraction of Expi293F cells expressing human GCS; 1.7 μM UDP-glucose, 3 μM C8 ceramide; room temperature 60 min; C8 glucosylceramide by Rapidfire MS/MS; read-out: GCS enzyme inhibitory rate at 10 μM (%). Here is the method:
In enzyme assay, a microsome fraction obtained by transient expression by Expi293F™ cells (catalog number: A14527, Thermo Fisher Scientific) was used as a glucosylceramide synthase source. Liposomal C8 ceramide and UDP-glucose were used as substrates. For each substrate concentration, 1.7 μM UDP-glucose, which is equal to the Km value, and 3 μM C8 ceramide were used. After the enzymatic reaction, the analysis was performed with Rapidfire MS/MS (API-4000™, SCIEX), and C8 glucosylceramide was quantified to evaluate the inhibitory activity of the test compound against glucosylceramide synthase activity.
PcDNA3.3TOPO vector (catalog number: K830001, Thermo Fisher Scientific) into which the human GCS gene was inserted was introduced into Expi293F™ Cells (catalog number: A14527, Thermo Fisher Scientific) by using ExpiFectamine™ 293 Transfection Kit (catalog number: A14525, Thermo Fisher Scientific). The cultured cells were dissolved in D-PBS (catalog number: 048-29805, Fuji Film Wako Pure Chemical Industries, Ltd.) containing 1 mM PMSF, and the solution was allowed to stand on ice for 30 minutes, and then subjected to cell disruption (homogenized). The disruption solution was centrifuged at 10,000×g for 20 minutes at 4° C., and the obtained supernatant was centrifuged at 142,400×g for 60 minutes at 4° C. The obtained precipitate was resuspended in a D-PBS solution containing 1 mM PMSF, and homogenized again to prepare as a microsome fraction. Protein quantification was performed by the CBB method.
A 1 mM compound solution prepared by dissolving the test compound in DMSO was added to a 384-well plate by 100 nL so that the final concentration of the test compound was 10 μM. Next, a substrate solution consisting of 3.4 μM UDP-glucose and 6 μM C8 ceramide was added by 5 μL, followed by an enzyme solution consisting of a 25 μg/mL microsome fraction by 5 μL. C8 ceramide was prepared from liposomes composed of 15 mol % C8 ceramide and 85 mol % dioleoyl phosphatidylcholine (1,2-dioleoyl-sn-glycero-3-phosphocholine: DOPC). The enzymatic reaction was carried out in a solution consisting of 20 mM tris-hydrochloric acid buffer (pH 7.5), 0.01% Tween 20, 0.01% bovine serum albumin and 1 mM dithiothreitol at room temperature for 60 min. Then, a solution consisting of 75% isopropanol and 1% formic acid containing 0.25 μM N-Octadecanoyl-D35-psichosine (catalog number: 1914, Matreya) as an internal standard substance was added by 60 μL to stop the enzymatic reaction. 5 μL of the centrifugal supernatant of the obtained reaction product was analyzed by Rapidfire MS/MS (Agilent Technologies) using API-4000™ (SCIEX), and the C8 glucosylceramide was quantified to evaluate the inhibitory activity of the test compound against the glucosylceramide synthase activity. The inhibitory activity of the test compound was evaluated when the C8 glucosylceramide level in the enzyme-free solution was considered as 100% inhibitory and the enzyme activity of the DMSO group in the absence of the compound was considered as 0% inhibitory.
With `CC(C)(C#N)c1ccc(NC(=O)c2cccn(-c3ccccc3OCC(F)(F)F)c2=O)cn1` [Example 88, N-[6-(2-cyanopropan-2-yl)pyridin-3-yl]-2-oxo-1-[2-(2,2,2-trifluoroethoxy)phenyl]-1,2-dihydropyridine-3-carboxamide], the inhibition at 10 µM is 100%.
With `CC(C)(O)c1ccc(NC(=O)c2cccn(-c3ccc(F)cc3OCC(F)(F)F)c2=O)cc1` [Example 42, 1-[4-fluoro-2-(2,2,2-trifluoroethoxy)phenyl]-N-[4-(2-hydroxypropan-2-yl)phenyl]-2-oxo-1,2-dihydropyridine-3-carboxamide], the inhibition at 10 µM stood at 99%.
Turning to `CC(C)(O)c1ccc(NC(=O)c2cncn(-c3ccc(F)cc3OCC(F)(F)F)c2=O)cc1` [Example 98, 1-[4-fluoro-2-(2,2,2-trifluoroethoxy)phenyl]-N-[4-(2-hydroxypropan-2-yl)phenyl]-6-oxo-1,6-dihydropyrimidine-5-carboxamide], the inhibition at 10 µM was determined as 98%.
On to `Cc1cc(C(=O)Nc2ccc(C3COC3)cc2)c(=O)n(-c2ccccc2OCC(F)F)n1` [Example 141, 2-[2-(2,2-difluoroethoxy)phenyl]-6-methyl-N-[4-(oxetan-3-yl)phenyl]-3-oxo-2,3-dihydropyridazine-4-carboxamide], for which the inhibition at 10 µM stood at 99%.
With `O=C(Nc1cnn(CC(F)(F)C(F)(F)F)c1)c1cccn(-c2ccc(F)cc2OCC(F)(F)F)c1=O` [Example 62, 1-[4-fluoro-2-(2,2,2-trifluoroethoxy)phenyl]-2-oxo-N-[1-(2,2,3,3,3-pentafluoropropyl)-1H-pyrazol-4-yl]-1,2-dihydropyridine-3-carboxamide], the inhibition at 10 µM amounted to 77%.
As to `Cn1cc(C(=O)Nc2ccc(C(O)(C(F)F)C(F)F)cc2)c(=O)c(-c2ccccc2OCC(F)F)n1` [Example 159, 6-[2-(2,2-difluoroethoxy)phenyl]-2-methyl-5-oxo-N-[4-(1,1,3,3-tetrafluoro-2-hydroxypropan-2-yl)phenyl]-2,5-dihydropyridazine-4-carboxamide], the inhibition at 10 µM worked out at 100%.
In the case of `CC(C)(O)c1ccc(NC(=O)c2ccnn(-c3ccc(F)cc3OCC(F)(F)F)c2=O)cc1` [Example 95, 2-[4-fluoro-2-(2,2,2-trifluoroethoxy)phenyl]-N-[4-(2-hydroxypropan-2-yl)phenyl]-3-oxo-2,3-dihydropyridazine-4-carboxamide], the inhibition at 10 µM was 99%.
Regarding `O=C(Nc1ccc(C(O)C2CC2)nc1)c1cccn(-c2ccc(F)cc2OCC(F)(F)F)c1=O` (racemic) [Example 75, rac-N-{6-[cyclopropyl(hydroxy)methyl]pyridin-3-yl}-1-[4-fluoro-2-(2,2,2-trifluoroethoxy)phenyl]-2-oxo-1,2-dihydropyridine-3-carboxamide], the inhibition at 10 µM is 96%.
As to `N#Cc1cc(F)ccc1-n1cccc(C(=O)Nc2ccc(Oc3ccccc3)cc2)c1=O` [Example 30, 1-(2-cyano-4-fluorophenyl)-2-oxo-N-(4-phenoxyphenyl)-1,2-dihydropyridine-3-carboxamide], the inhibition at 10 µM was determined as 55%.
As to `O=C(Nc1ccc(C2CCCO2)cc1)c1ccnn(-c2ccccc2OCC(F)F)c1=O` (racemic) [Example 144, rac-2-[2-(2,2-difluoroethoxy)phenyl]-3-oxo-N-[4-(oxolan-2-yl)phenyl]-2,3-dihydropyridazine-4-carboxamide], the inhibition at 10 µM was 100%.
For `O=C(Nc1cnn(CC2(F)CC2)c1)c1cccn(-c2ccc(F)cc2OCC(F)(F)F)c1=O` [Example 66, N-{1-[(1-fluorocyclopropyl)methyl]-1H-pyrazol-4-yl}-1-[4-fluoro-2-(2,2,2-trifluoroethoxy)phenyl]-2-oxo-1,2-dihydropyridine-3-carboxamide] the value was 60%; for `Cn1cc(C(=O)Nc2ccc(C(F)F)cc2)c(=O)c(-c2ccccc2OCC(F)F)n1` [Example 185, 6-[2-(2,2-difluoroethoxy)phenyl]-N-[4-(difluoromethyl)phenyl]-2-methyl-5-oxo-2,5-dihydropyridazine-4-carboxamide], 79%; for `CC(F)(F)COc1ccccc1-n1cccc(C(=O)Nc2ccc(C(C)(C)O)cc2)c1=O` [Example 99, 1-[2-(2,2-difluoropropoxy)phenyl]-N-[4-(2-hydroxypropan-2-yl)phenyl]-2-oxo-1,2-dihydropyridine-3-carboxamide], 99%.
`O=C(Nc1ccc(C2(O)CCC2)cc1)c1cccn(-c2ccc(F)cc2OCC(F)(F)F)c1=O` [Example 97, 1-[4-fluoro-2-(2,2,2-trifluoroethoxy)phenyl]-N-[4-(1-hydroxycyclobutyl)phenyl]-2-oxo-1,2-dihydropyridine-3-carboxamide]: the inhibition at 10 µM is 99%.
For `O=C(Nc1ccc(C(O)(C(F)F)C(F)F)cc1)c1cn(C2CCOC2)nc(-c2ccccc2OCC(F)F)c1=O` (racemic) [Example 196, rac-6-[2-(2,2-difluoroethoxy)phenyl]-5-oxo-2-(oxolan-3-yl)-N-[4-(1,1,3,3-tetrafluoro-2-hydroxypropan-2-yl)phenyl]-2,5-dihydropyridazine-4-carboxamide] the value was 100%; for `O=C(Nc1ccc(OCC(F)(F)F)nc1)c1ccnn(-c2ccc(F)cc2OCC(F)(F)F)c1=O` [Example 29, 2-[4-fluoro-2-(2,2,2-trifluoroethoxy)phenyl]-3-oxo-N-[6-(2,2,2-trifluoroethoxy)pyridin-3-yl]-2,3-dihydropyridazine-4-carboxamide], 97%.
Take `CC(C)(O)c1ccc(NC(=O)c2cn(C3CC3)nc(-c3ccccc3OCC(F)F)c2=O)cc1` [Example 169, 2-cyclopropyl-6-[2-(2,2-difluoroethoxy)phenyl]-N-[4-(2-hydroxypropan-2-yl)phenyl]-5-oxo-2,5-dihydropyridazine-4-carboxamide]: the inhibition at 10 µM is 100%.
The result for `O=C(Nc1ccc(C(F)F)nc1)c1cccn(-c2ccc(F)cc2OCC(F)(F)F)c1=O` [Example 49, N-[6-(difluoromethyl)pyridin-3-yl]-1-[4-fluoro-2-(2,2,2-trifluoroethoxy)phenyl]-2-oxo-1,2-dihydropyridine-3-carboxamide] reads 97%; that for `Cc1cc(C(=O)Nc2ccc(C(C)(C)O)cc2)c(=O)n(-c2ccccc2OCC(F)F)n1` [Example 136, 2-[2-(2,2-difluoroethoxy)phenyl]-N-[4-(2-hydroxypropan-2-yl)phenyl]-6-methyl-3-oxo-2,3-dihydropyridazine-4-carboxamide], 100%.
Take `O=C(Nc1ccc(C(O)(C(F)F)C(F)F)nc1)c1cn(C2COC2)nc(-c2ccccc2OCC(F)F)c1=O` [Example 187, 6-[2-(2,2-difluoroethoxy)phenyl]-2-(oxetan-3-yl)-5-oxo-N-[6-(1,1,3,3-tetrafluoro-2-hydroxypropan-2-yl)pyridin-3-yl]-2,5-dihydropyridazine-4-carboxamide]: the inhibition at 10 µM turned out to be 100%.
`O=C(Nc1ccc(OCC(F)(F)F)nc1)c1cccn(-c2ccc(F)cc2OCC(F)F)c1=O` [Example 101, 1-[2-(2,2-difluoroethoxy)-4-fluorophenyl]-2-oxo-N-[6-(2,2,2-trifluoroethoxy)pyridin-3-yl]-1,2-dihydropyridine-3-carboxamide]: the inhibition at 10 µM is 99%.
As for `COc1cc(F)ccc1-n1cccc(C(=O)Nc2ccc(Oc3ccccc3)cc2)c1=O` [Example 3, 1-(4-fluoro-2-methoxyphenyl)-2-oxo-N-(4-phenoxyphenyl)-1,2-dihydropyridine-3-carboxamide], the inhibition at 10 µM was determined as 92%.
